In general, melting point refers to the temperature, or range, at which the solid turns liquid. In general, half-life refers to the time needed for the level to fall by half in the phase considered.

Data set [1] can be described thus: Incubation with rat hepatocytes (conversion to active compound). The class given is in vitro ADME. How it is done:
The compound of Example 3 was incubated with rat hepalocytes to determine whether the active compound, 4-[3-[2-(dimethylamino)ethyl]-1H-indol-5-ylmethyl]-2-oxazolidinone, is a main product of its metabolism.

Data set [2] in a line: Diffusion through a lipoidal membrane barrier (trans-cellular absorption). Format: physicochemical. The note with it: laceryl alcohol/caprytic acid lipid membrane. How it is done:
The diffusion rates of the Compound of Example 3 and the active compound, 4-[3-[2-dimethylamino)ethyl]-1H-indol-5-ylmethyl]-2-oxazolidinone, through a lipoidal membrane barrier (laceryl alcohol/caprytic acid lipid membrane) were determined and compared.

Data set [3] is described as follows: Plasma concentrations in rats after intravenous administration. The class given is in vivo, rat. As for the experimental part: (§1) Investigations were carried out in rats to determine whether 4-[1-Acetyl-3-[2-(dimethylamino)ethyl]indol-5-ylmethyl]oxazolidin-2-one acetate (compound of Example 6) acts as a prodrug for the pharmacologically active compound 4-[3-[2-(dimethylamino)ethyl]-1H-indol-5-ylmethyl]-2-oxazolidinone described in EP-A-0486666. The compound of Example 6 was incubated with rat plasma at a concentration of approx. 0.2 μg/ml for up to 4 h. At selected times the incubations were terminated by addition of acetone and the concentrations of both 4-[1-Acetyl-3-[2-(dimethylamino)ethyl]indol-5-ylmethyl]oxazolidin-2-one acetate and its breakdown product 4-[3-[2-(dimethylamino)ethyl]-1H-indol-5-ylmethyl]-2-oxazolidinone were determined by HPLC assay. In addition rats were administered 4-[1-Acetyl-3-[2-(dimethylamino)ethyl]indol-5-ylmethyl]oxazolidin-2-one acetate intravenously at a dose of 4 mg/kg and the plasma and brain concentrations of this compound and the breakdown product, 4-[3-[2-(Dimethylamino)ethyl]-1H-indol-5-ylmethyl]- 2-oxazolidinone were determined up to 8 h after administration.
After intravenous administration, the peak plasma concentration (Cmax) of 4-[1-acetyl-3-[2-(dimethylamino)ethyl]indol-5-ylmethyl]oxazolidin-2-one acetate was approx 0.2 μg/ml (5 min) and this parent compound was detectable up to 1 h post dose (limit of detection 0.02 μg/ml); the plasma half-life was approximately 0.2 h. The breakdown product, 4-[3-[2-(dimethylamino) ethyl]-1H-indol-5-ylmethyl]-2-oxazolidinone was also detected in the plasma (Cmax 0.3 μg/ml, 5 min) up to 4 h after dosage.

Data set [4] can be described thus: Incubation of compound with rat plasma, HPLC assay of parent and breakdown product. Format: in vitro ADME. How it is done: as §1
4-[1-Acetyl-3-[2-(dimethylamino)ethyl]indol-5-ylmethyl]oxazolidin-2-one acetate was converted to 4-[3-[2-(Dimethylamino)ethyl]-1H-indol-5-ylmethyl]-2-oxazolidinone in rat plasma, with a half-life of approximately 3 h. After 4 h incubation only 30% of the parent compound of example 6 remained.

Molecule `CC(=O)O.Cc1ccccc1C(=O)n1cc(CCN(C)C)c2cc(CC3COC(=O)N3)ccc21` (stereo not drawn) [Example 3, 4-[1-(2-toluoyl)-3-[2-(dimethylamino)ethyl]indol-5-ylmethyl]oxazolidin-2-one acetate] showed a melting point of 51.5 to 54 °C. Moreover, the “conversion into the active compound” value in data set [1] was “extensively and rapidly converted into the active compound”. Besides, in data set [1] (after 30 minutes incubation), the compound remaining result is reported as “no compound of Example 3 remained”. The “Diffusion Rate” value in data set [2] was 3.88 cm/min/1000.

As to `CN(C)CCc1c[nH]c2ccc(CC3COC(=O)N3)cc12` (stereo not drawn) [Active compound, 4-[3-[2-(dimethylamino)ethyl]-1H-indol-5-ylmethyl]-2-oxazolidinone, reference compound], the “breakdown product detected in plasma up to, after dosage” value in data set [3] (rat, in vivo, iv, 4 mg/kg) was “up to 4 h”. In addition, in data set [2], the “Diffusion Rate” value is 0.68 cm/min/1000.

The molecule `CC(=O)O.CC(=O)n1cc(CCN(C)C)c2cc(CC3COC(=O)N3)ccc21` (stereo not drawn) [Example 6, 4-[1-Acetyl-3-[2-(dimethylamino)ethyl]indol-5-ylmethyl]oxazolidin-2-one acetate] gave a half-life in data set [3] (in vivo, rat, intravenous, 4 mg/kg) of around 0.2 h. For the same molecule, the Cmax in data set [3] (in vivo, rat, intravenous, 4 mg/kg, read-out: peak plasma concentration (Cmax) of parent compound) was around 200 ng/mL. The “parent compound detectable in plasma up to, post dose” value in data set [3] (rat, intravenous, 4 mg/kg, limit of detection 0.02 μg/ml) is given as “up to 1 h”. Further, in data set [3] (rats, plasma incubation and intravenous experiments), the “conversion into active compound in rats” value was “is converted into 4-[3-[2-(dimethylamino)ethyl]-1H-indol-5-ylmethyl]-2-oxazolidinone in rats”. Besides, the half-life at 0.2 μg/ml in data set [4] (rat plasma incubation, approx. 0.2 μg/ml, up to 4 h, read-out: half-life of conversion to 4-[3-[2-(Dimethylamino)ethyl]-1H-indol-5-ylmethyl]-2-oxazolidinone in rat plasma (converted)) was around 3 h. Besides, in data set [4] (rat plasma, after 4 h incubation), the parent compound remaining is recorded as 30%.

The record behind these values is patent US6423731B1, “Indole derivatives as prodrugs of 5-HT1-like receptor agonists” (Zeneca Limited, priority 1994, dated 2002).
